Laboratory results published in article PMC3438169 (PLoS ONE, 2012).
“Also recorded” adds a separate entry of the source. *1 amine or outer side, *2 acyl side, *3 side chain or, on linkers, in order; H or OH if unused. Where a SMILES comes first, the peptide text is derived from it. [ ]: non-standard residue; d: D form. dAla(ψthiazole) = C[C@@H](N[*:1])c1nc(C(=O)[*:2])cs1; Trp(4-OMe) = COc1cccc2[nH]cc(C[C@H](N)C(=O)O)c12; dAbu = CC[C@@H](N)C(=O)O; Dha = C=C(N)C(=O)O; Sar = CNCC(=O)O

How the values were obtained:
[1] = system: recombinant human mEF-G1 S494F; assay: Biacore binding, human mEF-G1 S494F; conditions: 10, 20, 40 µM, HBS-P+ pH 7.4, 4% DMSO
Description: GFM1 encoding the active site of EF-G1 (residues 36–751) was PCR amplified from pDONR221 constructs using primers (GGGGACAAGTTTGTACAAAAAAGCAGGCTTAATGTCTTCATCAGGGGTGATT, GGGGACCACTTTGTACAAGAAAGCTGGGTATTAGTTCTTGGCTTTTCC). P. aeroginosa fusA1 encoding full-length EF-G was PCR amplified from pET28a-PaEFG-Nhis using primers (GGGGACCACTTTGTACAAGAAAGCTGGGTATTATCAACCTTGTTTTTT, GGGGACAAGTTTGTACAAAAAAGCAGGCTTAATGGCCCGTACTACACCC). Purified PCR products were cloned into the pDONR221 vector using Gateway cloning and BP Clonase II (Invitrogen), shuttled into an E.coli protein expression vector for N-terminal tagging (Avitag-His6 vector) using LR Clonase II (Invitrogen), and verified by sequencing. Avitag-His6-hEF-G1 and Avitag-His6-PaEF-G constructs were transformed into BL21-AI cells (Invitrogen) and isolated single colonies were used to inoculate 5 ml cultures which were grown overnight at 37°C with shaking. […]. Briefly, protein was captured on column using binding buffer (50 mM Tris; pH 7.5, 300 mM NaCl, 20 mM imidazole, 10% glycerol), washed extensively with washing buffer (50 mM Tris; pH 7.5, 500 mM NaCl, 30 mM imidazole, 10% glycerol), and then eluted with elution buffer (50 mM Tris; pH 7.5, 500 mM NaCl, 250 mM imidazole, 10% glycerol). […]

P. aeruginosa EF-G1 = biological target: T1, P. aeruginosa EF-G1 (Pseudomonas aeruginosa, UniProt Q9HWD2); assay: Surface plasmon resonance (SPR); assay type: binding
T1 construct: P. aeroginosa fusA1 encoding full-length EF-G was PCR amplified from pET28a-PaEFG-Nhis; made in house; host or cells: E. coli BL21 (DE3)
T1 sequence (Q9HWD2 whole entry): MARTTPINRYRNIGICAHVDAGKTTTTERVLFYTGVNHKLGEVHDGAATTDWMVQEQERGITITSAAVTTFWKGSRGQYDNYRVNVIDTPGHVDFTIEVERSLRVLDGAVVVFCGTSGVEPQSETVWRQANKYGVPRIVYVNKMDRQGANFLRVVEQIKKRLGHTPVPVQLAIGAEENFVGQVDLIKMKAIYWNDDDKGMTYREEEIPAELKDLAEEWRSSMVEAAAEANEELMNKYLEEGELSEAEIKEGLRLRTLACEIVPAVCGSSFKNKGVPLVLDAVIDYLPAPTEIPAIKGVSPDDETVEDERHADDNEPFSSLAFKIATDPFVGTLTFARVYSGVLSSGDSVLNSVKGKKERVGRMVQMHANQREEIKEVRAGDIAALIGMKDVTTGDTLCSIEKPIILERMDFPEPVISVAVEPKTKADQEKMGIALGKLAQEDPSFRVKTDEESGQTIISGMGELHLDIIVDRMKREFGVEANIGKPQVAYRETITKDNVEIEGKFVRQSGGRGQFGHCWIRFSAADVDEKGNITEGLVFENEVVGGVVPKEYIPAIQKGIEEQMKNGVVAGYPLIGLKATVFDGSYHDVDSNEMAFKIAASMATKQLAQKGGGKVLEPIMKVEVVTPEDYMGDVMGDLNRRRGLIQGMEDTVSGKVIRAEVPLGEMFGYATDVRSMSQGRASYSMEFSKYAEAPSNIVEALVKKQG
Description: For wild type P. aeruginosa EF-G1 expression, the fusA gene was amplified from genomic DNA of P. aeruginosa PAO1 K767 using the primer pair EFG-F/EFG-R: […]/[…]. The product was digested with NdeI and HindIII and ligated into similarly digested pET28a to generate pET28a-PaEFG-Nhis. This plasmid was then used for site directed mutagenesis to introduce the nucleotide change encoding EF-G1S459F (pET28a-PaEFGS459F-Nhis). The plasmids were then transformed into an E. coli strain BL21 (DE3) for expression. A single colony was used to inoculate 10 ml LB broth containing 50 µg/ml kanamycin which was incubated at 37°C overnight, with shaking at 250 rpm. The overnight culture was then diluted 100-fold into 1 liter fresh LB broth containing 50 µg/ml kanamycin. After growing at 37°C with vigorous shaking for about 2.5 hours, expression of P. aeruginosa EF-G1 or EF-G1S459F was then induced by adding 0.1 mM IPTG, with further culture incubation at 18°C for 24 hours. Cells were then pelleted by centrifugation at 5,000 rpm with Sorvall SLC-6000 rotor and stored at −20°C. Cell pellets were then resuspended in 20 ml of BugBuster solution (Novagen) and incubated at room temperature for 20 minutes. […] The protein in the fractions was monitored by UV absorbance at 280 nm. […] Protein concentration was determined by Nano-drop spectrophotometer. […]

Q: What does the source list for `C=C1NC(=O)CN(C)C(=O)CNC(=O)[C@H](Cc2c[nH]c3cccc(OC)c23)NC(=O)[C@H](Cc2c[nH]c3ccccc23)NC(=O)c2csc(n2)[C@@H](C)NC(=O)[C@@H](CC)NC1=O` [argyrin B] (cyclo([dAbu][dAla(ψthiazole)]W[Trp(4-OMe)]G[Sar][Dha]))?
A: Binding to human mEF-G1 (in words) [1]: still bound; Binding to purified P. aeruginosa EF-G (in words) (P. aeruginosa EF-G1): bound purified P. aeruginosa EF-G tightly; also recorded: Very tight binding
